Measurements: US20260285903A1, “SYNTHESIZED BIOLOGICALLY ACTIVE COMPOUNDS AND METHODS OF MAKING AND USING” (Georgia State University Research Foundation, Inc., priority 2023, published 2026)
In brackets after ≈: the same amount, converted by molar mass. Read-outs that look alike come from different tables or passages of the source.

Experiments:
[1] = Chemical stability at various pH / in acidic PBS (HPLC); format: physicochemical
From the text: (§1) The main reason for failure in drug development is poor biopharmaceutical properties, which include low aqueous solubility, chemical instability.
(§2) The biopharmaceutical properties of the synthesized M13 (5-glutathione-6-shogaol) were characterized.

Kinetic solubility = format: physicochemical
From the text: as §1, §2

[2] = Thermodynamic (equilibrium) solubility; format: physicochemical; settings: read-out: thermodynamic (or equilibrium) solubility
From the text: as §1, §2

SPHK2 = SPHK2 (Homo sapiens, UniProt Q9NRA0); assay: Radiometric 33P kinase assay, 17 Lipid Kinase Panel; format: biochemical; settings: 20 μM M13, 10 μM ATP; read-out: inhibition of enzyme activity relative to control
From the text: (§3) It was hypothesized that M13 may target kinases to reduce the inflammatory response. Determination and improvement of the selectivity of a compound by screening a large part of the kinome are of pivotal importance in the discovery of M13 signaling pathways for its anti-inflammatory activities. Radiometric assays were used based on the transfer of ^33P-labeled phosphate from ATP to the kinase substrates found in the 376 Wild Type Kinase Panel and 17 Lipid Kinase Panel (Reaction Biology) and a broad kinase selectivity screen for the inhibitory activity of M13 was performed. Briefly, radiometric assays are based on the transfer of 10 μM ^33P-labelled phosphate from ATP to the kinase substrate. […] FIGS. 2A and 2B show the targeted inhibitor effects of M13 on lipid kinases (FIG. 2A) and protein kinases (FIG. 2B).

CDK6 = CDK6 (Homo sapiens, UniProt Q00534); assay: Radiometric 33P kinase assay, 376 Wild Type Kinase Panel; format: biochemical; settings: 20 μM M13, 10 μM ATP; read-out: inhibition of enzyme activity relative to control
From the text: as §3

RIPK4 = RIPK4 (Homo sapiens, UniProt P57078); assay: as above; format: biochemical; settings: 20 μM M13, 10 μM ATP; read-out: inhibition of enzyme activity relative to control
From the text: as §3

TRKB = TRKB (Homo sapiens, UniProt Q16620); assay: as above; format: biochemical; settings: 20 μM M13, 10 μM ATP; read-out: inhibition of enzyme activity relative to control
From the text: as §3

NF-κB signaling pathway = assay: NF-κB-dependent luciferase activity in NF-κB/293/GFP-Luc cells treated with TNF-α; format: cell-based
Procedure: First, the anti-inflammatory activity of MLY compounds on the NF-κB signaling pathway was examined using the NF-xB/293/GFP-LucTnl cell line (System Biosciences). This cell line is specifically designed for use in quantitatively monitoring (by luciferase intensity) transcriptional activation related to the NF-κB signal transduction pathway in vitro. Treatment of NF-κB/293/GFP-Luc™ cells with 10 ng/ml TNF-α for 18 hours induced strong activation of the NF-κB signal transduction pathway (FIGS. 8A and 8B). […] MLY2 and MLY8 induced a strongest 90% reduction of NF-κB activation the anti-inflammatory effect of MLY 2 and 8 was dose-related (FIG. 9). The dose to reduce the NF-κB activation by 50% was […] for M13, 5 μM for MLY2 and 11 μM for MLY8 (FIG. 9).

[3] = Incubation with mouse intestinal microsomes (HPLC); format: in vitro ADME; settings: mouse, intestinal microsomes; incubation for 30 minutes; read-out: relative content retained of the input
From the text: as §2

Caco-2/BBe cells = assay: MTT viability assay, 2D culture; format: cell-based, human
Procedure: PBMCs were provided by STEMCELL Technologies (STEMCELL Canada Inc.) and maintained in ImmunoCult™-XF T-cell Expansion Medium (Cat #10981). HIEC-6 cells were maintained in OptiMEM 1 Reduced Serum Medium supplemented with 20 mM HEPES, 10 mM GlutaMAX, 10 ng/mL Epidermal Growth Factor, 4% (v/v) fetal bovine serum (FBS), and 1% penicillin-streptomycin (PS). HCT-116 cells were maintained in ATCC-formulated McCoy's 5a medium, supplemented with 10% (v/v) FBS and 1% PS. Caco-2/BBe cells were grown in DMEM supplemented with 10% (v/v) FBS and 1% PS (v/v). Human colon cancer stem cells (HC-CSC) were maintained in complete growth media with serum and antibiotics (Cat #M36112-39S) from Celprogen Inc. (Torrance, CA, USA).
The […] (MTT) assay was used to study the effects of M13 on the viability of four 2D-cultured human intestinal cell lines (HIEC-6, HCT-116, Caco-2/BBe, and HC-CSC).
Next, the anti-cancer activities of free M13, NL, and M13-NL were compared against Caco-2/BBe cells.

[4] = system: AOM/DSS-induced colon tumors; assay: AOM/DSS-induced CAC mouse model, oral gavage; format: in vivo, C57BL/6J mice; settings: 5 mg/kg oral, vs AOM/DSS group
Procedure: Female C57BL/6J mice (Strain #:000664, The Jackson Laboratory, Bar Harbor, ME), female interleukin-10 knock-out (IL10^−/− mice, B6.129P2-IL10 tmlCgn, The Jackson Laboratory), and female CD-1 mice (CD-1@IGS Mouse, outbred, Charles River) were housed in a clean facility maintained at 22±2° C. and 30-70% relative humidity with a 12-h light/dark cycle. The diet (ABDIET@PICOLAB®, PMI Nutrition International LLC, Arden Hills, MN, USA) and water were provided ad libitum. Mice experiments were performed following ARRIVE guidelines 2.0, with approval from the Georgia State University Institutional Animal Care and Use Committee (IACUC, Protocol #A20039).
An AOM/DSS-induced CAC mouse model (C57BL/6J) was used to test the anti-cancer effects of free M13, NL, and M13-NL. […] Healthy mice were used as the control group (WT group).
Histological assessments of the colon tissues from AOM/DSS-induced CAC mice were performed. […] Immunofluorescence (IF) staining of apoptotic cells (TUNEL) and immunohistochemical (IHC) staining of Ki-67 were used to investigate the pro-apoptotic and anti-proliferative effects of M13-NL in vivo.

Vero cells = settings: added one-hour post-infection setting
Procedure: Virus and formulations were then left on the cells for the entire duration of the experiment (24 hours). The cytotoxicity of the same range of concentrations of formulations was determined by MTT assay.
The antiviral plates were incubated for 1 hour at 37° C., 5% CO2. The cytotoxicity plates were incubated for 24 hours at 37° C., 5% CO2.
After 24 hours, the infection plates were washed with PBS, fixed for 30 minutes with 4% formaldehyde, washed again with PBS, and stored in PBS at 4° C. until staining. The cytotoxicity plate was treated with MTT to determine cell viability.
Cytotoxicity was detected by MTT assay. Briefly, the MTT reagent (Sigma, M5655) was added to the cells for 2 hours at 37° C., 5% CO2, after which the media was removed, and the precipitate solubilized with a mixture of 1:1 Isopropanol: DMSO for 20 minutes. The supernatant was transferred to a clean plate and signal was read at 570 nm.

[5] = system: human colon cancer cells (HCT-116); settings: cited from earlier work
[6] = system: human normal colon fibroblast cells (CCD-18Co); settings: cited from earlier work

Chain of CDK6 (Q00534 whole entry): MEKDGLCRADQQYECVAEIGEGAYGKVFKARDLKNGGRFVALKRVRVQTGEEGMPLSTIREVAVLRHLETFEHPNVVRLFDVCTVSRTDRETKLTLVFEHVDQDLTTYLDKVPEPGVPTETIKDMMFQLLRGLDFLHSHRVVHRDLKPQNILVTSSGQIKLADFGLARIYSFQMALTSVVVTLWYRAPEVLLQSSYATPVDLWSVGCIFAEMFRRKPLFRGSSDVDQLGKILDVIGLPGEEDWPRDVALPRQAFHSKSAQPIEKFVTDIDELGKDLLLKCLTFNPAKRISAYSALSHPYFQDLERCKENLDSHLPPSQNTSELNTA
Chain of RIPK4 (P57078 whole entry): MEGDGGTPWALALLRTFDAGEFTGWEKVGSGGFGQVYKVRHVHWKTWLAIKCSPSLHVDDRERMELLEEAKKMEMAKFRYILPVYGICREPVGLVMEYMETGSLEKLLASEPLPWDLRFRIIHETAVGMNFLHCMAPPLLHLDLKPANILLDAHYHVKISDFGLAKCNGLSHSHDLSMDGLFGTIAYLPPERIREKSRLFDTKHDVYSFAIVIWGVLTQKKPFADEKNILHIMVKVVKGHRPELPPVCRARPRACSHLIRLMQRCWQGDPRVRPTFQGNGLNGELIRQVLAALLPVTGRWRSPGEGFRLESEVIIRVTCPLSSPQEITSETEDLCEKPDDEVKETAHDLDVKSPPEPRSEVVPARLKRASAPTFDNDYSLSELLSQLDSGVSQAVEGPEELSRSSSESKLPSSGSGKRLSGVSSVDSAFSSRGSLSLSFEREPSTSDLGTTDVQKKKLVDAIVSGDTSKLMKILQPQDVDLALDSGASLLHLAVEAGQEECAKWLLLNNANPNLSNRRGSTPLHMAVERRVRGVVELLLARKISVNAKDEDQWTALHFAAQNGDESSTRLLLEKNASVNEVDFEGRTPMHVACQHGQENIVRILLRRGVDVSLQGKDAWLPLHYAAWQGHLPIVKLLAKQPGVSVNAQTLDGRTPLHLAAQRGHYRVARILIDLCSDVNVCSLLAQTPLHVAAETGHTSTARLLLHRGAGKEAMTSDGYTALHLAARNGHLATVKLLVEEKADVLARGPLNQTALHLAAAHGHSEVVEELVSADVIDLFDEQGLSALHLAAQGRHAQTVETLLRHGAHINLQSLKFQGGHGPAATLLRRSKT
Chain of TRKB (Q16620 32-822): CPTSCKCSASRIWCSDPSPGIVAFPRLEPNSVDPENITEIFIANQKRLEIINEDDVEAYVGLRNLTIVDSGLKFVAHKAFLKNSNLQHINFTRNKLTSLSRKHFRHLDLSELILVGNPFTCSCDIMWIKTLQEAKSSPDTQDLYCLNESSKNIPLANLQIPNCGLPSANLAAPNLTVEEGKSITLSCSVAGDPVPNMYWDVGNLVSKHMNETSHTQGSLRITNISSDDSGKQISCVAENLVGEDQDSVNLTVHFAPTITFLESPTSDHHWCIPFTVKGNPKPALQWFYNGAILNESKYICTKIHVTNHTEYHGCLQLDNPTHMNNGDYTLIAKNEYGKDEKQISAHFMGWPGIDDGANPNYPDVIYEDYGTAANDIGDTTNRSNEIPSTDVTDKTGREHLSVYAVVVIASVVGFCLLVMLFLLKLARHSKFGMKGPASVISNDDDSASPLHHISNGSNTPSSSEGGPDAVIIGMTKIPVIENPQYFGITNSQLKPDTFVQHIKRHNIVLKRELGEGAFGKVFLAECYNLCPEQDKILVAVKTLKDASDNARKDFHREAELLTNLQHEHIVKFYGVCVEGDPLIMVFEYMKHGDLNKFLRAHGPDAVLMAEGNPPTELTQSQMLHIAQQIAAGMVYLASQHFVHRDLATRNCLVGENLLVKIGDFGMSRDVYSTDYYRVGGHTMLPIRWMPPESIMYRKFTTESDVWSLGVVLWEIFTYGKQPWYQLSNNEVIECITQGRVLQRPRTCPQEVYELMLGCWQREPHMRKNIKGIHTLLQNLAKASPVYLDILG
Chain of SPHK2 (Q9NRA0 whole entry): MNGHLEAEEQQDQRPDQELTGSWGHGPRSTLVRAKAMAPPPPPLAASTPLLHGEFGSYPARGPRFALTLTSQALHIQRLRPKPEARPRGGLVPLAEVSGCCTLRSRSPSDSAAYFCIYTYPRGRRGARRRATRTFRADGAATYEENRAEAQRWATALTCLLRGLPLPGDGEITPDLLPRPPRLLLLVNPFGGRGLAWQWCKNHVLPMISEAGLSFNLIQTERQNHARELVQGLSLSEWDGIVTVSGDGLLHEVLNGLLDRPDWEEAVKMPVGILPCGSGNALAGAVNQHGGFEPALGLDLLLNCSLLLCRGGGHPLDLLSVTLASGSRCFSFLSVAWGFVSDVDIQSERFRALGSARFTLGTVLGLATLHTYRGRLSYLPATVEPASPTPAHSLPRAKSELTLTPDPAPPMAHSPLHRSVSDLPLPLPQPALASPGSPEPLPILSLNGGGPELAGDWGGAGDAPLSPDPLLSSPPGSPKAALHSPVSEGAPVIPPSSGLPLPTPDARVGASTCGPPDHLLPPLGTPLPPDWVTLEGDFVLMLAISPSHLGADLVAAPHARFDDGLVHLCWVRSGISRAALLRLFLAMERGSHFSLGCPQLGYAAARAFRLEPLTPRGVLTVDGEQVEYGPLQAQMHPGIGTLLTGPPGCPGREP

CCCCCC(CC(=O)CCc1ccc(O)c(OC)c1)SCC(NC(=O)CCC(N)C(=O)O)C(=O)NCC(=O)O (stereo not drawn) [M13, 5-glutathione-6-shogaol]
relative content of M13 before and after incubation (HPLC) ([1]; 37° C., 2 h, acidic PBS (pH=5.0 or 3.0)): consistent before and after incubation | stability at various pH levels ([1]; pH 2 to pH 10): very stable | solubility kinetic (Kinetic solubility; Example 1): > 200 µM | solubility kinetic (Kinetic solubility; as printed in Example 6): > 200 µM | solubility thermodynamic ([2]; Example 1): 1390 µM (≈ 812 µg/mL) | solubility thermodynamic ([2]; as printed in Example 6): 1390 µM (≈ 811 µg/mL) | inhibition at 20 µM (SPHK2): 30 to 45% | inhibition at 20 µM (CDK6): 30 to 45% | inhibition at 20 µM (RIPK4): 30 to 45% | inhibition at 20 µM (TRKB): 30 to 45% | activity at 20 µM (NF-κB signaling pathway; M13 20 μM, TNF-α 10 ng/ml, 18 hours, read-out: RLU (% with TNFα)): 87.2 ± 8.29% | activity at 50 µM (NF-κB signaling pathway; M13 50 μM, TNF-α 10 ng/ml, 18 hours, read-out: RLU (% with TNFα)): 9.75 ± 2.78% | activity at 100 µM (NF-κB signaling pathway; M13 100 μM, TNF-α 10 ng/ml, 18 hours, read-out: RLU (% with TNFα)): 0.81 ± 0.22% | IC50 (NF-κB signaling pathway; read-out: dose to reduce the NF-κB activation by 50%): ~29 µM | remaining at 0.5 h [3]: 86% | fold by which IC50 against HIEC-6 is higher (Caco-2/BBe cells; HIEC-6 vs Caco-2/BBe): 6 fold | IC50 (Caco-2/BBe cells; Homo sapiens, Caco-2, 24 h): 16.7 µM | number of tumors [4]: failed to reduce the number of tumors | toxicity (Vero cells): low toxicity | bioactivity [5]: exhibited bioactivity | toxicity [6]: low toxicity
